What was measured:
[1] = test system: XOD; test: Serum XOD activity of high uric acid mouse models, determined using an ELISA kit; format: in vivo, C57BL/6 mice; details: high uric acid mice, 100 mg/kg of body weight, intragastric, 30 days, mean ± SD, n = 6
Method: (§1) C57BL/6 mice (16.7-20.4 g, 6-7 weeks old) were provided by the Guangdong Medical Laboratory Animal Center, and quarantined for 4 days before the trial. During the trial, the mice were kept in a house with stable conditions with a 12 h:12 h light-dark cycle and given ad libitum access to food and water.
The mice were divided according to their weights into a negative control group (normal mice), a model control group (mice with high uric acid levels), a positive control group (mice with high uric acid levels, administrated with allopurinol tablets), a low-dosage group (mice with high uric acid levels, administrated with 50 mg/kg of the okra polygalacturonic acid), and a high-dosage group (mice with high uric acid levels, administrated with 200 mg/kg of the okra polygalacturonic acid), six mice in each group. […]
(§2) 3 hours after the last administration, the mice were anaesthetized using isoflurane, and blood was collected from each mouse by removing eyeballs. […] Blood uric acid levels, blood creatinine levels, and serum urea nitrogen levels were measured by an automatic biochemical analyzer, and XOD activities were determined using an ELISA kit.

[2] = test system: mice with high uric acid levels; test: Evaluation of uric acid-lowering effect in high uric acid mouse models (blood uric acid, blood creatinine, serum urea nitrogen); format: in vivo, C57BL/6 mice; details: 100 mg/kg of body weight, mean ± SD, n = 6
Method: as §1
The mice were divided according to their weights into a negative control group (normal mice), a model control group (mice with high uric acid levels), a positive control group (mice with high uric acid levels, administrated with allopurinol tablets), a low-dosage group (mice with high uric acid levels, […] acid), and a high-dosage group (mice with high uric acid levels, […]), six mice in each group. The mice of each group were treated with a corresponding solution through intragastric administration with a dosage of 20 mL per kg of body weight, wherein the mice of the positive control group were treated with a 5 mg/mL allopurinol solution, the mice of the negative control group and the model control group were treated with purified water, one administration per day. […] The mice were treated for 30 successive days.
Method for preparing OP1 samples: 45 mg of the okra polygalacturonic acid was weighed out and mixed well with a certain volume of purified water. The mixture was further added with purified water to a final volume of 4.5 mL to give a 10 mg/mL high-dosage solution, which shall be shaken well before used. 0.9 mL of the high-dosage solution was added with purified water to a final volume of 3.6 mL and mixed well to give a 2.5 mg/mL low-dosage solution, which shall be shaken well before used. […]
as §2

`Oc1ncnc2[nH]ncc12` [Positive control, allopurinol] showed an XOD activity [1] of 19.8 ± 2.2 U/L, a blood creatinine ([2]; intragastric, 30 days) of 30.2 ± 5.7 µmol/L and a serum urea nitrogen ([2]; intragastric, 30 days) of 23.3 ± 4.1 mmol/L. The Blood uric acid ([2]; one intragastric administration per day for 30 days, serum 3 hours after last administration) was 134.8 ± 19.9 µmol/L.
